# Reference: US8048881B2, “Pyrimidine derivatives and their use as P2Y12 receptor antagonists” (Actelion Pharmaceuticals Ltd., priority 2005, dated 2011)
# Structures can show the parent of a compound that is named as a salt.
# Molecular target: T1, human P2Y12 receptor (Homo sapiens, UniProt Q9H244)
# T1 construct: expressed in transfected cells; host or cells: Chinese Hamster Ovary (CHO) cells
# Experiment: P2Y12 receptor binding assay
# Settings: CHO cells with recombinant expression of the human P2Y12 receptor; tritium-labeled 2-methyl-S-ADP; incubation at room temperature for 2 hours
# Experimental: P2Y12 Receptor Binding Assay
# Chinese Hamster Ovary (CHO) cells with recombinant expression of the human P2Y12 receptor were cultured in 24 well cell-culture plates. Cells were washed three times with binding buffer (50 mM Tris pH 7.4, 100 mM NaCl, 1 mM EDTA, 0.5% BSA). The cells were then incubated with 0.5 ml per well binding buffer containing tritium-labeled 2-methyl-thio-adenosine 5′-diphosphate (2-methyl-S-ADP) (between 100'000 and 300'000 dpm per well) and various concentrations of test compounds. After incubation at room temperature for 2 hours, cells were washed three times with binding buffer. Then, cells were solubilized by addition of 0.5 ml solubilization buffer (SDS, NaOH, EDTA). The content of each well was then transferred into beta-counter vials and 2.0 ml of Ultima Gold Scintillation liquid was added.
# T1 sequence (Q9H244 whole entry): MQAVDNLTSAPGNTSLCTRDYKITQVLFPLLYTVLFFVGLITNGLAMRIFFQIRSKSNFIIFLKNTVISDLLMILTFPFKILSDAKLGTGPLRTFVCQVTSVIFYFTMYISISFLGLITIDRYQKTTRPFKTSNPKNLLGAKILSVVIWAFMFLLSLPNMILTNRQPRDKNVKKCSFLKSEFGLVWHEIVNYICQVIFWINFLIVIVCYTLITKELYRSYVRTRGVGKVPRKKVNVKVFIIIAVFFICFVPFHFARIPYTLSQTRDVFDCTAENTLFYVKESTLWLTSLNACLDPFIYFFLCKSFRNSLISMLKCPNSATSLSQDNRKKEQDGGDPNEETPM
row,Compound,IC50
1,"CCOC(=O)N1CCN(C(=O)[C@H](CCC(=O)O)NC(=O)c2cc(/C=C/CCO)nc(-c3ccccc3)n2)CC1 [Example 421, 4-((S)-4-carboxy-2-{[6-((E)-4-hydroxy-but-1-enyl)-2-phenyl-pyrimidine-4-carbonyl]-amino}-butyryl)-piperazine-1-carboxylic acid ethyl ester]",75 nM
2,"CCOC(=O)N1CCN(C(=O)C(Cc2cccc(OCC(=O)O)c2)NC(=O)c2cc(OC3CCCC3)nc(-c3ccccc3)n2)CC1 (centres unmarked) [Example 31, 4-{3-(3-carboxymethoxy-phenyl)-2-[(6-cyclopentyloxy-2-phenyl-pyrimidine-4-carbonyl)-amino]-propionyl}-piperazine-1-carboxylic acid ethyl ester]",592 nM
3,"CCOC(=O)N1CCN(C(=O)[C@H](CCC(=O)O)NC(=O)c2cc(C)nc(-c3cccc(C)c3)n2)CC1 [Example 105, 4-{(S)-4-carboxy-2-[(6-methyl-2-m-tolyl-pyrimidine-4-carbonyl)-amino]-butyryl}-piperazine-1-carboxylic acid ethyl ester]",940 nM
4,"CCOC(=O)N1CCN(C(=O)[C@H](CCC(=O)O)NC(=O)c2cc(NCCCN3CCOCC3)nc(-c3ccccc3)n2)CC1 [Example 66, 4-((S)-4-carboxy-2-{[6-(3-morpholin-4-yl-propylamino)-2-phenyl-pyrimidine-4-carbonyl]-amino}-butyryl)-piperazine-1-carboxylic acid ethyl ester triflate salt]",202 nM
5,"CCOC(=O)N1CCN(C(=O)[C@H](CCC(=O)O)NC(=O)c2cc(-c3cccc(C)c3)nc(-c3ccccc3)n2)CC1 [Example 94, 4-{(S)-4-carboxy-2-[(2-phenyl-6-m-tolyl-pyrimidine-4-carbonyl)-amino]-butyryl}-piperazine-1-carboxylic acid ethyl ester]",200 nM
6,"C#Cc1cc(C(=O)N[C@@H](CCC(=O)O)C(=O)N2CCN(C(=O)OCC)CC2)nc(-c2ccccc2)n1 [Example 258, 4-{(S)-4-carboxy-2-[(6-ethynyl-2-phenyl-pyrimidine-4-carbonyl)-amino]-butyryl}-piperazine-1-carboxylic acid ethyl ester]",253 nM
7,"CC(C)(C)NC(=O)N1CCN(C(=O)[C@H](CCC(=O)O)NC(=O)c2cc(OC3CCCC3)nc(-c3ccccc3)n2)CC1 [Example 435, (S)-5-(4-tert-butylcarbamoyl-piperazin-1-yl)-4-[(6-cyclopentyloxy-2-phenyl-pyrimidine-4-carbonyl)-amino]-5-oxo-pentanoic acid]",94 nM
8,"CCOC(=O)N1CCN(C(=O)[C@H](CCC(=O)O)NC(=O)c2cc(CSC3CCCC3)nc(-c3ccccc3)n2)CC1 [Example 378, 4-{(S)-4-carboxy-2-[(6-cyclopentylsulfanylmethyl-2-phenyl-pyrimidine-4-carbonyl)-amino]-butyryl}-piperazine-1-carboxylic acid ethyl ester]",157 nM
9,"CCOC(=O)N1CCN(C(=O)[C@H](CCC(=O)O)NC(=O)c2cc(C#CC(O)CC)nc(-c3ccccc3)n2)CC1 (stereo partly drawn) [Example 261, 4-((S)-4-carboxy-2-{[6-(3-hydroxy-pent-1-ynyl)-2-phenyl-pyrimidine-4-carbonyl]-amino}-butyryl)-piperazine-1-carboxylic acid ethyl ester]",126 nM
10,"CCOC(=O)N1CCN(C(=O)[C@H](CCC(=O)O)NC(=O)c2cc(OC3CCCC3)nc(-c3ccccc3)n2)CC1 [Example 1, 4-{(S)-4-carboxy-2-[(6-cyclopentyloxy-2-phenyl-pyrimidine-4-carbonyl)-amino]-butyryl}-piperazine-1-carboxylic acid ethyl ester]",117 nM
11,"CCOC(=O)N1CCN(C(=O)[C@H](CCC(=O)O)NC(=O)c2cc(OC3CCCC3)nc(-c3ccccc3)n2)CC1C (stereo partly drawn) [Example 46, 4-{(S)-4-carboxy-2-[(6-cyclopentyloxy-2-phenyl-pyrimidine-4-carbonyl)-amino]-butyryl}-2-methyl-piperazine-1-carboxylic acid ethyl ester]",510 nM
12,"CCOC(=O)N1CCN(C(=O)[C@H](CCC(=O)O)NC(=O)c2cc(SC3CCCC3)nc(-c3ccccc3)n2)CC1 [Example 249, 4-{(S)-4-carboxy-2-[(6-cyclopentylsulfanyl-2-phenyl-pyrimidine-4-carbonyl)-amino]-butyryl}-piperazine-1-carboxylic acid ethyl ester]",101 nM
13,"CCOC(=O)N1CCN(C(=O)[C@H](CCC(=O)O)NC(=O)c2cc(N[C@H]3CC[C@H](O)CC3)nc(-c3ccccc3)n2)CC1 [Example 243, 4-((S)-4-carboxy-2-{[6-(trans-4-hydroxy-cyclohexylamino)-2-phenyl-pyrimidine-4-carbonyl]-amino}-butyryl)-piperazine-1-carboxylic acid ethyl ester]",223 nM
14,"CCOC(=O)N1CCN(C(=O)[C@H](Cc2ccc(C(=O)O)cc2)NC(=O)c2cc(OC3CCCC3)nc(-c3ccccc3)n2)CC1 [Example 21, 4-{(S)-3-(4-carboxy-phenyl)-2-[(6-cyclopentyloxy-2-phenyl-pyrimidine-4-carbonyl)-amino]-propionyl}-piperazine-1-carboxylic acid ethyl ester]",201 nM
15,"CCOC(=O)N1CCN(C(=O)[C@H](CCCC(=O)O)NC(=O)c2cc(-c3ccccc3)nc(-c3ccccc3)n2)CC1 [Example 121, 4-{(S)-5-carboxy-2-[(2,6-diphenyl-pyrimidine-4-carbonyl)-amino]-pentanoyl}-piperazine-1-carboxylic acid ethyl ester]",127 nM
16,"CCOC(=O)N1CCN(C(=O)[C@H](Cc2ccc(C(=O)O)cc2)NC(=O)c2cc(NC(C)C)nc(-c3ccccc3)n2)CC1 [Example 115, 4-{(S)-3-(4-carboxy-phenyl)-2-[(6-isopropylamino-2-phenyl-pyrimidine-4-carbonyl)-amino]-propionyl}-piperazine-1-carboxylic acid ethyl ester]",390 nM
17,"CCOC(=O)N1CCN(C(=O)[C@H](CCC(=O)O)NC(=O)c2cc(-c3cn[nH]c3)nc(-c3ccccc3)n2)CC1 [Example 396, 4-((S)-4-carboxy-2-{[2-phenyl-6-(1H-pyrazol-4-yl)-pyrimidine-4-carbonyl]-amino}-butyryl)-piperazine-1-carboxylic acid ethyl ester]",73 nM

# Now from value to compound:
row,IC50,Compound
1,169 nM,"CCCC(CCC)C(=O)Nc1cc(C(=O)N[C@@H](CCC(=O)O)C(=O)N2CCN(C(=O)OCC)CC2)nc(-c2ccccc2)n1 [Example 341, 4-((S)-4-carboxy-2-{[2-phenyl-6-(2-propyl-pentanoylamino)-pyrimidine-4-carbonyl]-amino}-butyryl)-piperazine-1-carboxylic acid ethyl ester]"
2,188 nM,"CCOCc1cc(C(=O)N[C@@H](CCC(=O)O)C(=O)N2CCN(C(=O)OCC)CC2)nc(-c2ccccc2)n1 [Example 430, 4-{(S)-4-carboxy-2-[(6-ethoxymethyl-2-phenyl-pyrimidine-4-carbonyl)-amino]-butyryl}-piperazine-1-carboxylic acid ethyl ester]"
3,142 nM,"CCCSc1cc(C(=O)N[C@@H](CCC(=O)O)C(=O)N2CCN(C(=O)OCC)CC2)nc(-c2ccccc2)n1 [Example 247, 4-{(S)-4-carboxy-2-[(2-phenyl-6-propylsulfanyl-pyrimidine-4-carbonyl)-amino]-butyryl}-piperazine-1-carboxylic acid ethyl ester]"
4,174 nM,"CCOC(=O)N1CCN(C(=O)[C@H](CCC(=O)O)NC(=O)c2cc(NCC(C)O)nc(-c3ccccc3)n2)CC1 (stereo partly drawn) [Example 231, 4-((S)-4-carboxy-2-{[6-(2-hydroxy-propylamino)-2-phenyl-pyrimidine-4-carbonyl]-amino}-butyryl)-piperazine-1-carboxylic acid ethyl ester]"
5,72 nM,"CCOC(=O)N1CCN(C(=O)[C@H](CCC(=O)O)NC(=O)c2cc(C(C)=O)nc(-c3ccccc3)n2)CC1 [Example 402, 4-{(S)-2-[(6-acetyl-2-phenyl-pyrimidine-4-carbonyl)-amino]-4-carboxy-butyryl}-piperazine-1-carboxylic acid ethyl ester]"
6,276 nM,"CCOC(=O)CCNc1cc(C(=O)N[C@@H](CCC(=O)O)C(=O)N2CCN(C(=O)OCC)CC2)nc(-c2ccccc2)n1 [Example 59, 4-((S)-4-carboxy-2-{[6-(2-ethoxycarbonyl-ethylamino)-2-phenyl-pyrimidine-4-carbonyl]-amino}-butyryl)-piperazine-1-carboxylic acid ethyl ester triflate salt]"
7,273 nM,"CCOC(=O)N1CCN(C(=O)[C@H](CCC(=O)O)NC(=O)c2cc(CCC(C)(C)O)nc(-c3ccccc3)n2)CC1 [Example 266, 4-((S)-4-carboxy-2-{[6-(3-hydroxy-3-methyl-butyl)-2-phenyl-pyrimidine-4-carbonyl]-amino}-butyryl)-piperazine-1-carboxylic acid ethyl ester]"
8,98 nM,"CCCCc1cc(C(=O)N[C@@H](CCC(=O)O)C(=O)N2CCN(C(=O)OCC)CC2)nc(-c2ccccc2)n1 [Example 88, 4-{(S)-2-[(6-butyl-2-phenyl-pyrimidine-4-carbonyl)-amino]-4-carboxy-butyryl}-piperazine-1-carboxylic acid ethyl ester]"
9,97 nM,"CCOC(=O)N1CCN(C(=O)[C@H](CCC(=O)O)NC(=O)c2cc(NC(C)COC)nc(-c3ccccc3)n2)CC1 (stereo partly drawn) [Example 223, 4-((S)-4-carboxy-2-{[6-(2-methoxy-1-methyl-ethylamino)-2-phenyl-pyrimidine-4-carbonyl]-amino}-butyryl)-piperazine-1-carboxylic acid ethyl ester formate salt]"
